Measurements as given in patent publication US9492485B2, “Pluripotent stem cell-derived brown adipocytes, pluripotent stem cell-derived cell aggregate, method for producing same, and cell therapy and medical therapy therefor” (ID Pharma Co., Ltd., priority 2011, dated 2016).

What was measured:
[1] = system: undifferentiated human iPS cells; test: Oxygen consumption (OCR) with XF96 Extracellular Flux Analyzer; type: cell-based; conditions: CL316,243 100 nM or isoproterenol 100 μM, 4 hours (FIG. 12B left)
[2] = system: brown adipocytes derived from human ES cells; test: as above; type: cell-based; conditions: CL316,243 100 nM or isoproterenol 100 μM, 4 hours (FIG. 12A right)
Protocol: (§1) Brown adipocytes were differentiated from KhES-3 and SeV-iPS cell lines in accordance with the method described in Example 5. Here, the adhesion culture in the step (B) for differentiation induction was carried out using a 96-well plate for exclusive use in XF96 Extracellular Flux Analyzer (Seahorse Bioscience Inc., Billerica, Mass.) after coating with 0.1% gelatin. The cell aggregates were seeded at an amount of 30 cell aggregates per well. The cell aggregates seeded in the 96-well plate were incubated in a 5% CO2 incubator at 37° C. for 2 days. Subsequently, isoproterenol (100 μM) or CL316,243 (100 nM) was added to a half of the wells, and incubation was further carried out in a 5% CO2 incubator at 37° C. for 4 hours, followed by measurement of oxygen consumption (OCR) per minute with XF96 Extracellular Flux Analyzer (Seahorse Bioscience Inc., Billerica, Mass.).

[3] = system: brown adipocytes derived from human iPS cells; test: as above; type: cell-based; conditions: CL316,243 100 nM or isoproterenol 100 μM, 4 hours (FIG. 12B right)
Protocol: as §1

[4] = system: undifferentiated human ES cells; test: as above; type: cell-based; conditions: CL316,243 100 nM or isoproterenol 100 μM, 4 hours (FIG. 12A left)
[5] = system: white adipocytes produced from human mesenchymal stem cells (MSCs); test: as above; type: cell-based; conditions: CL316,243 100 nM or isoproterenol 100 μM, 4 hours (FIG. 12C)
[6] = system: brown adipocytes produced from KhES-3 cell line and SeV-iPS cell line; test: RT-PCR of PRDM16 and UCP1 gene expression after addition of adrenaline receptor agonist; type: cell-based, human; conditions: 100 μM, 4 hours, RT-PCR (FIG. 10)
Protocol: Brown adipocytes were produced from KhES-3 cell line and SeV-iPS cell line in accordance with the method described in Example 5 and were reacted with 100 μM of an adrenaline receptor agonist, isoproterenol, for 4 hours. In order to evaluate the activation of the brown adipocytes by the addition of the adrenaline receptor agonist, the expressions of the PRDM16 and UCP1 genes were investigated by RT-PCR.

[7] = system: human ES cell-derived brown adipocytes; test: Influence of brown adipocyte stimulant on hematopoietic cytokine expression levels; type: cell-based; conditions: treatment with isoproterenol (FIG. 16E)
[8] = system: 10-week old mice (male, ICR strain); test: Relief of 5-fluorouracil-induced myelosuppression in mice, bone marrow cell count; type: in vivo, mouse; conditions: 5-FU 100 mg/kg; isoproterenol 30 μmol/kg on 3 to 6 days after; vs saline; P=0.032 (FIG. 16F)
Protocol: Furthermore, whether or not a brown adipocyte stimulant has an effect of relieving a severe side effect of anticancer drug administration, myelosuppression, was investigated. Specifically, an anticancer drug, 5-fluorouracil (5-FU), was administered to 10-week old mice (male, ICR strain) at a dose of 100 mg/kg. Isoproterenol (30 μmol/kg) or saline was administered to the mice on 3 to 6 days after the administration, and bone marrow cells were collected from the thighbone over time and were counted.

**Q.** For `C[C@H](Cc1ccc2c(c1)OC(C(=O)[O-])(C(=O)[O-])O2)NC[C@H](O)c1cccc(Cl)c1.[Na+].[Na+]` [CL316,243], which OCR value [1] is on record?
**A.** no change

**Q.** And the OCR value [2]?
**A.** significant increase

**Q.** What about the OCR value [3] of the same molecule?
**A.** significant increase

**Q.** What about the OCR value [4] of the same molecule?
**A.** no change

**Q.** And the OCR value [5]?
**A.** no change

**Q.** How did the “expression of the PRDM16 gene” value [6] turn out when `CC(C)NCC(O)c1ccc(O)c(O)c1` (stereo not drawn) [isoproterenol] was run?
**A.** increase

**Q.** And the “expression of the UCP1 gene” value [6]?
**A.** increase

**Q.** What about the “expression levels of cytokines (TPO, IL6, IL3, G-CSF, GM-CSF, EPO)” value [7] of the same molecule?
**A.** increased

**Q.** And the “number of bone marrow cells on the 7th day from the 5-FU administration” value [8]?
**A.** significantly increased
